Assay type in all cases: cell-based
The target in assay [1] is T1, 17β-hydroxysteroid dehydrogenase type 1 (17β-HSD type 1) (Homo sapiens, UniProt P14061).
T1 construct: expressed in transfected cells; host or cells: MCF-7
T1 sequence (P14061 1-328): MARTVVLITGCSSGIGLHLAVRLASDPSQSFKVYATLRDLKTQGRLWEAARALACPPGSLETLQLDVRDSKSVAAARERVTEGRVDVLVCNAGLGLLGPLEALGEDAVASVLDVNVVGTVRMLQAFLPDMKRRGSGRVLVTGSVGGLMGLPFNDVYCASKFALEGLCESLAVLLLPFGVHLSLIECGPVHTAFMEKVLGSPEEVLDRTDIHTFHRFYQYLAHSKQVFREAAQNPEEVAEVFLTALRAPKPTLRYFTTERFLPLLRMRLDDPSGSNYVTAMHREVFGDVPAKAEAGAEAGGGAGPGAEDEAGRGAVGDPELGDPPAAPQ
Nature of the assay: Inhibition of 17β-HSD type 1 in MCF-7 cells stably expressing the isoenzyme (tritium labeled estrone conversion, HPLC). Particulars: MCF7, MCF-7 cells expressing 17β-HSD type 1, 2 nM tritium labeled estrone; for inhibition at 1 µM: 1 μM test compound, read-out: % Inhibition HSD1 1 μM; for inhibition at 10 µM: 10 μM test compound, read-out: % Inhibition HSD1 10 μM. An excerpt:
(§1) Biological Testing Materials and Methods 1. Inhibition of the 17β-hydroxysteroid dehydrocienase type 1, type 2 and type 3 enzyme
(§2) The compounds were screened in respect of 17β-HSD enzyme activity in vitro on established MCF-7 cell lines, each stably expressing one of the respective 17β-HSD isoenzymes. The interconversion of substrate by each isoenzyme and the 17β-HSD inhibiting activity of chemical compounds in these cell lines were detected by HPLC system.
(§3) Varying amounts of the test compounds were incubated in the growth medium of the 17β-HSD expressing cells together tritium labeled substrate (2 nM estrone for 17β-HSD type 1; 2 nM estradiol for 17β-HSD type 2; and 2 nM androstenedione for 17β-HSD type 3). The medium samples were removed after exact incubation time and the reaction is stopped by trichloroacetic acid (TCA). The samples were analyzed by HPLC-coupled flow scintillation analysis.
(§4) For each enzyme type, the HSD-inhibiting activity of an individual test compound was calculated by comparing the conversion of a control sample without any test compound (referred to as “Negative Control”) to the (reduced) conversion of the test sample containing the particular compound to be tested (referred to as “Test Sample”).
(§5) Two concentrations of each compound were used. The number of the compound refers to the numbers indicated in the Experimental Section.

In assay [2] the target is T2, 17β-hydroxysteroid dehydrogenase type 2 (17β-HSD type 2) (Homo sapiens, UniProt P37059).
T2 construct: expressed in transfected cells; host or cells: MCF-7
T2 sequence (P37059 1-387): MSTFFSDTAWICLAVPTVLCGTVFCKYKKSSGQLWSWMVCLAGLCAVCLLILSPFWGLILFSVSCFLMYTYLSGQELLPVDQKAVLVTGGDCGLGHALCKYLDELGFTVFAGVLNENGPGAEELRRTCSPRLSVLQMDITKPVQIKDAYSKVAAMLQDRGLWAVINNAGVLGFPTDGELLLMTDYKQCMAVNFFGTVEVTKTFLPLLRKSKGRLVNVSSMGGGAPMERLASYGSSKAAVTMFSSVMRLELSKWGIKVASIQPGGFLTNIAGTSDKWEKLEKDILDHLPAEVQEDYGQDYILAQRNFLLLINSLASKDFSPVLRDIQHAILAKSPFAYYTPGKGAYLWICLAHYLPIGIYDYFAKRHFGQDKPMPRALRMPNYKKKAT
Nature of the assay: Inhibition of 17β-HSD type 2 in MCF-7 cells stably expressing the isoenzyme (tritium labeled estradiol conversion, HPLC). Conditions: MCF7, MCF-7 cells expressing 17β-HSD type 2, 2 nM tritium labeled estradiol; for inhibition at 1 µM: 1 μM test compound, read-out: % Inhibition HSD2 1 μM; for inhibition at 10 µM: 10 μM test compound, read-out: % Inhibition HSD2 10 μM.
Excerpt: as §1, §2, §3, §4, §5

Assay [3] addresses T3, 17β-hydroxysteroid dehydrogenase type 3 (17β-HSD type 3) (Homo sapiens, UniProt P37058).
T3 construct: expressed in transfected cells; host or cells: MCF-7
T3 sequence (P37058 1-310): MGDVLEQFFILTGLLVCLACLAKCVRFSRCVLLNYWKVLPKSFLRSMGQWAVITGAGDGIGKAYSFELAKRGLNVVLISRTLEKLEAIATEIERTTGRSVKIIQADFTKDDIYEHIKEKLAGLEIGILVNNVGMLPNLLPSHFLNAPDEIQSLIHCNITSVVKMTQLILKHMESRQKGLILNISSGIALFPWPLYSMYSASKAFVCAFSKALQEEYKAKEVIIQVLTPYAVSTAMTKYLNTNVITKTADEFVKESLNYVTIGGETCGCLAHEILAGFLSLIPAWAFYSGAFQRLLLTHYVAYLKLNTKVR
Nature of the assay: Inhibition of 17β-HSD type 3 in MCF-7 cells stably expressing the isoenzyme (tritium labeled androstenedione conversion, HPLC). Conditions: MCF7, MCF-7 cells expressing 17β-HSD type 3, 2 nM tritium labeled androstenedione; for inhibition at 1 µM: 1 μM test compound, read-out: % Inhibition HSD3 1 μM; for inhibition at 10 µM: 10 μM test compound, read-out: % Inhibition HSD3 10 μM.
Excerpt: as §1, §2, §3, §4, §5

Here are results for 14 compounds from patent publication US7524853B2 (Solvay Pharmaceuticals B.V., priority 2003, dated 2009).

The structures appear in SMILES notation.

For `Cc1nc2sc3c(c2c(=O)n1-c1ccccc1)CCCC3=O` [No. 25, 2-Methyl-3-phenyl-6,7-dihydro-3H,5H-benzo[4,5]thieno[2,3-d]pyrimidine-4,8-dione], the inhibition at 1 µM in assay [1] stood at 5.9%; in assay [2], 5.5%; in assay [3], 25.7%. Besides, the values for the inhibition at 10 µM in assay [1], in assay [2] and in assay [3] were 13.8%, 7.9% and 29%, respectively.
For `COC(=O)Cc1nc2sc3c(c2c(=O)n1Cc1ccccc1)CCCC3` [No. 26, 2-(acetic acid methyl ester)-3-benzyl-5,6,7,8-tetrahydro-3H-benzo[4,5]thieno[2,3-d]pyrimidin-4-one], the inhibition at 1 µM in assay [1] was 23.5%; in assay [2] it was -1.8%; in assay [3], -6.1%. Besides, the figures for the inhibition at 10 µM in assay [1], in assay [2] and in assay [3] were 37.4%, 32.3% and 7.1%, respectively.
With `COCc1nc2sc3c(c2c(=O)n1Cc1ccccc1)CCCC3` [No. 27, 3-Benzyl-2-methoxymethyl-5,6,7,8-tetrahydro-3H-benzo[4,5]thieno[2,3-d]pyrimidin-4-one], the inhibition at 1 µM in assay [1] is 11.2%; in assay [2], 8.5%; in assay [3], -14.4%. The inhibition at 10 µM in assay [1] stood at 32.3%; in assay [2], 7.2%; in assay [3] it was 12.2%.
As to `O=c1c2c3c(sc2nc(CO)n1Cc1ccccc1)CCCC3` [No. 28, 3-Benzyl-2-hydroxymethyl-5,6,7,8-tetrahydro-3H-benzo[4,5]thieno[2,3-d]pyrimidin-4-one], the inhibition at 1 µM in assay [1] was found to be 2.6%; in assay [2], 12.9%; in assay [3], 1.9%. Besides, the inhibition at 10 µM worked out at 18% in assay [1], 16.3% in assay [2] and 16.7% in assay [3].
Consider `CC(=O)OCc1nc2sc3c(c2c(=O)n1Cc1ccccc1)CCCC3` [No. 29, Acetic acid 3-benzyl-4-oxo-3,4,5,6,7,8-hexahydro-benzo[4,5]thieno[2,3-d]pyrimidin-2-ylmethyl ester], for which the inhibition at 1 µM in assay [1] is 9%; in assay [2], 8.5%; in assay [3] it was 16.9%. The inhibition at 10 µM in assay [1] was found to be 15.5%; in assay [2], 21.1%; in assay [3], 28.4%.
As to `CC(=O)OCc1nc2sc3c(c2c(=O)n1Cc1ccccc1)CCCC3=O` [No. 30, Acetic acid 3-benzyl-4,8-dioxo-3,4,5,6,7,8-hexahydro-benzo[4,5]thieno[2,3-d]pyrimidin-2-ylmethyl ester], the inhibition at 1 µM in assay [1] is 25.4%; in assay [2] it was 20.2%; in assay [3], -1.2%. For the same compound, the results for the inhibition at 10 µM in assay [1], in assay [2] and in assay [3] were 39.7%, 19.1% and 16.3%, respectively.
Consider `COCc1nc2sc3c(c2c(=O)n1Cc1ccccc1)CCCC3=O` [No. 31, 3-Benzyl-2-methoxymethyl-6,7-dihydro-3H,5H-benzo[4,5]thieno[2,3-d]pyrimidine-4,8-dione], for which the results for the inhibition at 1 µM in assay [1], in assay [2] and in assay [3] were 12%, -0.5% and -1.3%, respectively. Moreover, the figures for the inhibition at 10 µM in assay [1], in assay [2] and in assay [3] were 39.7%, 5.1% and 10.8%, respectively.
For the compound `COC(=O)c1nc2sc3c(c2c(=O)n1Cc1ccccc1)CCCC3=O` [No. 32, 3-Benzyl-4,8-dioxo-3,4,5,6,7,8-hexahydro-benzo[4,5]thieno[2,3-d]pyrimidine-2-carboxylic acid methyl ester], the inhibition at 1 µM worked out at 37.2% in assay [1], 9.8% in assay [2] and 9.6% in assay [3]. For the same compound, the inhibition at 10 µM amounted to 86.6% in assay [1], 19.5% in assay [2] and 70% in assay [3].
As for `O=Cc1nc2c(c(=O)n1Cc1ccccc1)C1=C(CCCC1)S2(=O)=O` [No. 33, 3-Benzyl-4,9,9-trioxo4,5,6,7,8,9-hexahydro-3H-9lambda*6*-benzo[4,5]thieno[2,3-d]pyrimidine-2-carbaldehyde], the inhibition at 1 µM in assay [1] is 17.6%; in assay [2], 16.3%; in assay [3] it was 1.9%. For the same compound, the figures for the inhibition at 10 µM in assay [1], in assay [2] and in assay [3] were 67.3%, 18.7% and 0.1%, respectively.
With `COCc1nc2sc3c(c2c(=O)n1Cc1ccccc1)CCC(C=O)=C3Cl` [No. 34, 3-Benzyl-8-chloro-2-methoxymethyl-4-oxo-3,4,5,6-tetrahydro-benzo[4,5]thieno[2,3-d]pyrimidine-7-carbaldehyde], the inhibition at 1 µM in assay [1] is 12.5%; in assay [2] it was -1.5%; in assay [3], 15.8%. Further, the inhibition at 10 µM is 64.2% in assay [1], 25.3% in assay [2] and 100% in assay [3].
With `COCc1nc2sc3c(Cl)c(C=O)c(C(=O)O)c(O)c3c2c(=O)n1Cc1ccccc1` [No. 35, 3-Benzyl-8-chloro-7-formyl-5-hydroxyl-2-methoxymethyl-4-oxo-benzo[4,5]thieno[2,3-d]pyrimidine-6-carboxylic acid], the values for the inhibition at 1 µM in assay [1], in assay [2] and in assay [3] were 8.8%, -6.8% and 14.7%, respectively. For the same compound, the inhibition at 10 µM is 28.6% in assay [1], 28.7% in assay [2] and 82.3% in assay [3].
As for `COCc1nc2sc3c(c2c(=O)n1-c1ccccc1)CCCC3` [No. 36, 2-Methoxymethyl-3-phenyl-5,6,7,8-tetrahydro-3H-benzo[4,5]thieno[2,3-d]pyrimidin-4-one], the inhibition at 1 µM in assay [1] was 20.7%; in assay [2], -6.8%; in assay [3], -0.9%. Also, the inhibition at 10 µM in assay [1] was determined as 22.4%; in assay [2], 28.7%; in assay [3], 7.6%.
In the case of `COCc1nc2sc3c(c2c(=O)n1-c1ccccc1)CCCC3=O` [No. 37, 2-Methoxymethyl-3-phenyl-6,7-dihydro-3H,5H-benzo[4,5]thieno[2,3-d]pyrimidin-4,8-dione], the inhibition at 1 µM was 9.7% in assay [1], -0.2% in assay [2] and 9.2% in assay [3]. Besides, the inhibition at 10 µM came out at 21.4% in assay [1], 9% in assay [2] and 22.2% in assay [3].
Turning to `O=c1c2c3c(sc2nc(CO)n1-c1ccccc1)CCCC3` [No. 38, 2-Hydroxymethyl-3-phenyl-5,6,7,8-tetrahydro-3H-benzo[4,5]thieno[2,3-d]pyrimidin-4-one], the values for the inhibition at 1 µM in assay [1], in assay [2] and in assay [3] were 0.3%, 11.4% and 14.2%, respectively. Besides, the inhibition at 10 µM in assay [1] came to 23.6%; in assay [2], 33.4%; in assay [3] it was 17.6%.

As a reminder, the inhibition is the relative decrease from the control value, in per cent.
